Measured values reported in patent US7196108B2, “Bicyclic heterocycles for the treatment of diabetes and other diseases” (Incyte San Diego Inc., priority 2002, dated 2007).
Entries after “also recorded” stand apart in the source; their conditions may differ.

Key:
[1] = system: KKA^y mice; test: Oral administration in the treatment of type 2 diabetes in KKA^y mice (serum glucose and triglycerides); type: in vivo, mouse; details: 15 mg/kg oral gavage once daily in sesame oil, days 7 and/or 14, vs control; for serum glucose level: FIG. 2; for serum triglyceride level: FIG. 3
Protocol: These models include among others, db/db mice, ob/ob mouse, and KKA^y mice. […] A procedure for such experiments was described in detail in Iwatsuka, et al., 1970 General Survey of Diabetic Features of Yellow KK Mice. Endocrinol. Japon. 17: 23–35, incorporated herein by reference. The testing of the compounds of the invention was conducted as described in Example 22. The animals were treated with a single daily oral dose of 15 mg/kg of the test compound suspended in sesame oil (dose volume of 3–5 ml/kg). At the end of one and two weeks of treatment the animals were bled from the tail vein and their serum glucose and triglycerides and/or cholesterol was measured in duplicate.
Experimental Procedure: Six to eight week-old male KKA^y mice (available from Jackson Labs of Bar Harbour, Me.) were housed in a fixed 12–12-hr artificial light-dark cycle, and maintained on a standard rodent diet provided ad libitum. Animals were allowed two days to acclimate in this experimental environment prior to the initiation of the study. Prior to initiation of treatment, the animals were bled from the tail vein (100–200 μL of whole blood) and serum levels of glucose and triglycerides were measured in duplicate (Trinder kits; Sigma, St.Louis, Mo.). Based on these initial measures, animals were sorted into groups with approximately the same average serum triglyceride levels. Once sorted, the animals were housed one per cage and provided rodent diet ad libitum.
Treatment group A (n=6/group): • 1) KKA^y control (sesame oil) • 2) Compound 1 (15 mg/kg)
Treatment group B (n=6/group): • 1) KKA^y control (sesame oil) • 2) Compound 6 (15 mg/kg)
Treatment group C (n=6/group): • 1) KKA^y control (sesame oil) • 2) Compound 9 (15 mg/kg)
All compounds were suspended in sesame oil, and administered to animals in a volume of 3 ml/kg/dose. All treatments were administered by oral gavage once daily.
To monitor the effect of the tested Compounds, animals were bled at the end of the dark cycle on days 7 and/or 14 of the treatment period. Serum glucose and triglyceride levels were measured in duplicate. The blood was kept at room temperature to allow coagulation, after which the serum was separated and assayed for glucose and triglyceride levels.

[2] = disclosed in U.S. Pat. No. 6,515,003; cited from earlier work
[3] = system: 3T3-L1 pre-adipocytes; details: disclosed in U.S. Pat. No. 6,515,003; cited from earlier work

**Q.** With `CC(C)Cc1cc(-c2cc(/C=C3\SC(=O)NC3=O)ccc2OC(F)(F)F)c2c(c1)C(C)(C)CO2` [Compound 1, 5-[3-(5-Isobutyl-3,3-dimethyl-2,3-dihydro-benzofuran-7-yl)-4-trifluoromethoxy-benzylidene]-thiazolidine-2,4-dione] as the compound, how does the melting point read?
**A.** 142 to 146 °C

**Q.** What about the serum glucose level [1] of the same compound?
**A.** significantly lowered; also recorded: reduction

**Q.** What about the serum triglyceride level [1] of the same compound?
**A.** lowered; also recorded: reduction

**Q.** Which serum glucose level [1] does the source give for `COc1c(F)cc(/C=C2\SC(=O)NC2=O)c(F)c1-c1cc(CC(C)C)cc2c1OCC2(C)C` [Compound 6, 5-[2,5-Difluoro-3-(5-isobutyl-3,3-dimethyl-2,3-dihydro-benzofuran-7-yl)-4-methoxy-benzylidene]-thiazolidine-2,4-dione] here?
**A.** significantly lowered; also recorded: reduction

**Q.** What about the serum triglyceride level [1] of the same compound?
**A.** lowered; also recorded: reduction

**Q.** Which results are given for `CC1(C)COc2c(-c3cc(/C=C4\SC(=O)NC4=O)ccc3OC(F)(F)F)cc(-c3ccoc3)cc21` [Compound 9, 5-[3-(5-Furan-3-yl-3,3-dimethyl-2,3-dihydro-benzofuran-7-yl)-4-trifluoromethoxy-benzylidene]-thiazolidine-2,4-dione]?
**A.** serum glucose level [1]: significantly lowered; also recorded: reduction; serum triglyceride level [1]: lowered; also recorded: reduction

**Q.** Which results are given for `Cc1cc2c(cc1-c1cc(/C=C3\SC(=O)NC3=O)ccc1OC(F)(F)F)C(C)(C)CCC2(C)C` [Compound 20, 5-[3-(3,5,5,8,8-Pentamethyl-5,6,7,8-tetrahydro-naphthalen-2-yl)-4-trifluoromethoxy-benzylidene]-thiazolidine-2,4-dione]?
**A.** activity for the treatment of diabetes [2]: active; adipocyte differentiation activity [3]: active
